Data reported in US11919901B2 (Syndax Pharmaceuticals, Inc., priority 2021, dated 2024).

These compounds were tested on MV4-11 cells (assay: Cell proliferation assay MV4;11 (CellTiter-Glo, 72 hours)). Conditions: Homo sapiens; MV4;11 leukemia cell line, 72 hours; read-out: MV4; 11 IC50.
Type: cell-based
How it was run: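 MV4-11 cells (MLL1-AF4 fusion) exposed 72 h at 37 °C to 8 compound concentrations, final 0.632–2000 nM. Viability by CellTiter-Glo luminescence as % of vehicle RLU; % max inhibition = 100 − viability at top concentration.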
In the case of `C[C@@H]1COC[C@H](C)N1C(=O)c1cc(F)ccc1Oc1cncnc1N1CC2(CCN(C[C@@H]3CC[C@@H](NS(=O)(=O)c4ccccc4)CO3)CC2)C1` [Example 130, N-((3R,6S)-6-((2-(5-(2-((3S,5R)-3,5-Dimethylmorpholine-4-carbonyl)-4-fluorophenoxy)pyrimidin-4-yl)-2,7-diazaspiro[3.5]nonan-7-yl)methyl)tetrahydro-2H-pyran-3-yl)benzenesulfonamide], the IC50 is reported as under 100 nM.
`Cc1nc(S(=O)(=O)N[C@@H]2CC[C@@H](CN3CCC4(CC3)CN(c3ncncc3Oc3ccc(F)cc3C(=O)N3[C@H](C)COC[C@@H]3C)C4)OC2)cs1` [Example 131, N-((3R,6S)-6-((2-(5-(2-((3S,5R)-3,5-Dimethylmorpholine-4-carbonyl)-4-fluorophenoxy)pyrimidin-4-yl)-2,7-diazaspiro[3.5]nonan-7-yl)methyl)tetrahydro-2H-pyran-3-yl)-2-methylthiazole-4-sulfonamide] gave an IC50 of under 100 nM.
`CC(C)N(C(=O)c1cc(F)ccc1Oc1cncnc1N1CC2(CCN(C[C@@H]3CC[C@@H](NS(=O)(=O)C(C)C)CO3)CC2)C1)[C@@H]1CCOC1` [Example 132, 5-Fluoro-N-isopropyl-2-((4-(7-(((2S,5R)-5-((1-methylethyl)sulfonamido)tetrahydro-2H-pyran-2-yl)methyl)-2,7-diazaspiro[3.5]nonan-2-yl)pyrimidin-5-yl)oxy)-N-((R)-tetrahydrofuran-3-yl)benzamide] showed an IC50 of under 100 nM.
`CC(C)N(C(=O)c1cc(F)ccc1Oc1cncnc1N1CC2(CCN(C[C@@H]3CC[C@@H](NS(=O)(=O)N4CCC4)CO3)CC2)C1)[C@H]1CCOC1` [Example 134, 2-((4-(7-(((2S,5R)-5-(Azetidine-1-sulfonamido)tetrahydro-2H-pyran-2-yl)methyl)-2,7-diazaspiro[3.5]nonan-2-yl)pyrimidin-5-yl)oxy)-5-fluoro-N-isopropyl-N-((S)-tetrahydrofuran-3-yl)benzamide] was tested, and the IC50 was under 100 nM.
In the case of `CC(C)N(CCC#N)C(=O)c1cc(F)ccc1Oc1cncnc1N1CC2(CCN(C[C@@H]3CC[C@@H](NS(=O)(=O)c4ccccc4)CO3)CC2)C1` [Example 136, N-(2-Cyanoethyl)-5-fluoro-N-isopropyl-2-((4-(7-(((2S,5R)-5-(phenylsulfonamido)tetrahydro-2H-pyran-2-yl)methyl)-2,7-diazaspiro[3.5]nonan-2-yl)pyrimidin-5-yl)oxy)benzamide], the IC50 is reported as under 100 nM.
`CC(C)N(C)C(=O)c1cc(F)ccc1Oc1cncnc1N1CC2(CCN(C[C@@H]3CC[C@@H](NS(=O)(=O)N(C)C)CO3)CC2)C1` [Example 137, 2-((4-(7-(((2S,5R)-5-((N,N-Dimethylsulfamoyl)amino)tetrahydro-2H-pyran-2-yl)methyl)-2,7-diazaspiro[3.5]nonan-2-yl)pyrimidin-5-yl)oxy)-5-fluoro-N-isopropyl-N-methylbenzamide] gave an IC50 of under 100 nM.
`CC(C)N(C)C(=O)c1cc(F)ccc1Oc1cncnc1N1CC2(CCN(C[C@@H]3CC[C@@H](NS(=O)(=O)N4CCC4)CO3)CC2)C1` [Example 138, 2-((4-(7-(((2S,5R)-5-(Azetidine-1-sulfonamido)tetrahydro-2H-pyran-2-yl)methyl)-2,7-diazaspiro[3.5]nonan-2-yl)pyrimidin-5-yl)oxy)-5-fluoro-N-isopropyl-N-methylbenzamide] gave an IC50 of under 100 nM.
`CCN(C(=O)c1cc(F)ccc1Oc1cncnc1N1CC2(CCN(C[C@@H]3CC[C@@H](NS(=O)(=O)N(C)CC)CO3)CC2)C1)C(C)C` [Example 140, N-Ethyl-2-((4-(7-(((2S,5R)-5-((N-ethyl-N-methylsulfamoyl)amino)tetrahydro-2H-pyran-2-yl)methyl)-2,7-diazaspiro[3.5]nonan-2-yl)pyrimidin-5-yl)oxy)-5-fluoro-N-isopropylbenzamide] showed an IC50 of under 100 nM.
Work on `CCNS(=O)(=O)N[C@@H]1CC[C@@H](CN2CCC3(CC2)CN(c2ncncc2Oc2ccc(F)cc2C(=O)N(CC)C(C)C)C3)OC1` [Example 141, N-Ethyl-2-((4-(7-(((2S,5R)-5-((N-ethylsulfamoyl)amino)tetrahydro-2H-pyran-2-yl)methyl)-2,7-diazaspiro[3.5]nonan-2-yl)pyrimidin-5-yl)oxy)-5-fluoro-N-isopropylbenzamide] yielded an IC50 of under 100 nM.
`CCN(C(=O)c1cc(F)ccc1Oc1cncnc1N1CC2(CCN(C[C@@H]3CC[C@@H](NS(=O)(=O)NC4CC4)CO3)CC2)C1)C(C)C` [Example 142, 2-((4-(7-(((2S,5R)-5-((N-Cyclopropylsulfamoyl)amino)tetrahydro-2H-pyran-2-yl)methyl)-2,7-diazaspiro[3.5]nonan-2-yl)pyrimidin-5-yl)oxy)-N-ethyl-5-fluoro-N-isopropylbenzamide] showed an IC50 of under 100 nM.
With `CNS(=O)(=O)N[C@@H]1CC[C@@H](CN2CCC3(CC2)CN(c2ncncc2Oc2ccc(F)cc2C(=O)N(C(C)C)C(C)C)C3)OC1` [Example 143, 5-Fluoro-N,N-diisopropyl-2-((4-(7-(((2S,5R)-5-((N-methylsulfamoyl)amino)tetrahydro-2H-pyran-2-yl)methyl)-2,7-diazaspiro[3.5]nonan-2-yl)pyrimidin-5-yl)oxy)benzamide] the IC50 was under 100 nM.
For `CCNS(=O)(=O)N[C@@H]1CC[C@@H](CN2CCC3(CC2)CN(c2ncncc2Oc2ccc(F)cc2C(=O)N(C(C)C)C(C)C)C3)OC1` [Example 144, 2-((4-(7-(((2S,5R)-5-((N-Ethylsulfamoyl)amino)tetrahydro-2H-pyran-2-yl)methyl)-2,7-diazaspiro[3.5]nonan-2-yl)pyrimidin-5-yl)oxy)-5-fluoro-N,N-diisopropylbenzamide], the IC50 was under 100 nM.
Work on `CCNS(=O)(=O)N[C@@H]1CC[C@@H](CN2CCC3(CC2)CN(c2ncncc2Oc2ccc(F)cc2C(=O)N(C(C)C)C2CC2)C3)OC1` [Example 145, N-Cyclopropyl-2-((4-(7-(((2S,5R)-5-((N-ethylsulfamoyl)amino)tetrahydro-2H-pyran-2-yl)methyl)-2,7-diazaspiro[3.5]nonan-2-yl)pyrimidin-5-yl)oxy)-5-fluoro-N-isopropylbenzamide] yielded an IC50 of under 100 nM.
With `CCNS(=O)(=O)N[C@@H]1CC[C@@H](CN2CCC3(CC2)CN(c2ncncc2Oc2ccc(F)cc2C(=O)N(CC(F)F)C(C)C)C3)OC1` [Example 147, N-(2,2-Difluoroethyl)-2-((4-(7-(((2S,5R)-5-((N-ethylsulfamoyl)amino)tetrahydro-2H-pyran-2-yl)methyl)-2,7-diazaspiro[3.5]nonan-2-yl)pyrimidin-5-yl)oxy)-5-fluoro-N-isopropylbenzamide] the IC50 was under 100 nM.
With `CC(C)N(CC(F)F)C(=O)c1cc(F)ccc1Oc1cncnc1N1CC2(CCN(C[C@@H]3CC[C@@H](NS(=O)(=O)NCC4CC4)CO3)CC2)C1` [Example 148, 2-((4-(7-(((2S,5R)-5-((N-(Cyclopropylmethyl)sulfamoyl)amino)tetrahydro-2H-pyran-2-yl)methyl)-2,7-diazaspiro[3.5]nonan-2-yl)pyrimidin-5-yl)oxy)-N-(2,2-difluoroethyl)-5-fluoro-N-isopropylbenzamide] the IC50 was under 100 nM.
For `CC(C)N(CC(F)F)C(=O)c1cc(F)ccc1Oc1cncnc1N1CC2(CCN(C[C@@H]3CC[C@@H](NS(=O)(=O)NC4CC4)CO3)CC2)C1` [Example 149, 2-((4-(7-(((2S,5R)-5-((N-Cyclopropylsulfamoyl)amino)tetrahydro-2H-pyran-2-yl)methyl)-2,7-diazaspiro[3.5]nonan-2-yl)pyrimidin-5-yl)oxy)-N-(2,2-difluoroethyl)-5-fluoro-N-isopropylbenzamide], the IC50 was under 100 nM.
